These results are taken from US12534477B2, “Compound having KHK inhibitory effect” (HANGZHOU ZHONGMEIHUADONG PHARMACEUTICAL CO., LTD., priority 2019, dated 2026).

The structures appear in SMILES notation. Read-outs that look alike come from different tables or passages of the source.

A word on the IC50: it is the concentration needed to halve the response being measured. The low end stands for inhibition by little substance, the high end for a need for much substance. Broadly, the clearance is the rate of elimination divided by the concentration. The bioavailability is the share of a dose that reaches the circulation, judged against a reference dose that is usually intravenous.

One data set addresses CYP1A2 (Homo sapiens (Human), UniProt P05177). Format: in vitro ADME. The following applies: microsomes. As for the experimental part: (§1) The inhibitory effect of test compounds on the activity of human hepatic microsomal cytochrome P450 isozymes (CYP1A2, CYP2C9, CYP2C19, CYP2D6 and CYP3A4) was determined.
(§2) First, the test compound (10 mM) was diluted in gradient to prepare working solutions (100×final concentration) with working solution concentrations: 5, 1.5, 0.5, 0.15, 0.05, 0.015, 0.005 mM, respectively, and at the same time, working solutions of each positive inhibitor of P450 isozymes (CYP1A2, CYP2C9, CYP2C19, CYP2D6 and CYP3A4) and its specific substrate mixture were prepared. Human liver microsomes frozen in a −80° C. refrigerator were thawed on ice, and diluted with PB (phosphate buffer) after all the human liver microsomes were dissolved, to prepare a working solution at a certain concentration (0.253 mg/mL). 20 μl substrate mixture was added to the reaction plate (20 μL PB was added to the Blank wells) while 158 μL human liver microsome working solution was added to the reaction plate which was placed on ice for later use. At this time, 2 μL of each concentration of the test compound (N=1) and the specific inhibitor (N=2) were added to the corresponding wells, and the corresponding organic solvents were added to the groups without inhibitors (the test compound or the positive inhibitor) as control samples (1:1 DMSO:MeOH for the test compound control sample, and 1:9 DMSO:MeOH for the positive control sample). After pre-incubation in 37° C. water bath for 10 min, 20 μL coenzyme factor (NADPH) solution was added to the reaction plate, and incubated in 37° C. water bath for 10 min. 400 μL cold acetonitrile solution (200 ng/mL Tolbutamide and Labetalol as the internal standard) was added to stop the reaction. The reaction plate was placed on a shaker and shaken for 10 min. The mixture was centrifuged at 4,000 rpm for 20 min, and 200 μl the supernatant was added to 100 μL water for sample dilution. Finally, the plate was sealed, shaken, mixed well and detected by LC/MS/MS.

A further data set concerns the target CYP2C19 (Homo sapiens (Human), UniProt P33261). The experiment in a line: Inhibitory activity on human liver microsomal cytochrome P450 isozymes. Conditions: human liver microsomes. Format: in vitro ADME. On the procedure: as §1, §2
On the technique in general: Microsomes from liver hold many membrane-bound enzymes, among them those of drug oxidation.

The next data set concerns the target CYP2C9 (Homo sapiens (Human), UniProt P11712). The description is as above. Format: in vitro ADME. The following applies: human liver microsomes. As for the experimental part: as §1, §2
The next data set addresses CYP2D6 (Homo sapiens (Human), UniProt P10635). Described as above. Conditions: human liver microsomes. Format: in vitro ADME. As for the experimental part: as §1, §2
The target in the next data set is CYP3A4 (Homo sapiens (Human), UniProt P08684). Described as above. It is filed as in vitro ADME. Conditions: human liver microsomes. As for the experimental part: as §1, §2
CYP3A4, sequence (P08684 whole entry): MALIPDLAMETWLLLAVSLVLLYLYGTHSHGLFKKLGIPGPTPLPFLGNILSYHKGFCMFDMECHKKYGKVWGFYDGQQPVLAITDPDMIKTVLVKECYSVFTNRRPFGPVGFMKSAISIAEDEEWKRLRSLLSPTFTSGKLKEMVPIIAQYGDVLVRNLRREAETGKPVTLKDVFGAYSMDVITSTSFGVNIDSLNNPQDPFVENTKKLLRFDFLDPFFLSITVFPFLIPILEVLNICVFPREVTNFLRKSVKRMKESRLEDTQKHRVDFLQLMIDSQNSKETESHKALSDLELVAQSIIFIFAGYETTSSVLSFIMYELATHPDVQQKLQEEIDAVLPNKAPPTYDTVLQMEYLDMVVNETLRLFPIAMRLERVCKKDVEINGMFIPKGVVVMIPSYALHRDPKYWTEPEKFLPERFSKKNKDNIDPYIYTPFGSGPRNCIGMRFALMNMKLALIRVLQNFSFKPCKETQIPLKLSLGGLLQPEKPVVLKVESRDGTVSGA
Data set [1] is described as follows: Pharmacokinetic evaluation in SD rats. Format: in vivo. Conditions: rat, plasma. As for the experimental part:
In vivo pharmacokinetics of compounds in SD rats were tested.
Pharmacokinetic profiles in rodents following intravenous and oral administration of the compounds were tested by standard protocols. In the experiment, candidate compounds were formulated as clear solutions or homogeneous suspensions, and were administered to rats by single intravenous injection (IV, 1 mpk) and oral administration (PO, 3 mpk). The vehicle for intravenous injection was a certain proportion of PEG400 in water, and the vehicle for oral administration was a certain proportion of methylcellulose and Tween 80 in water. Whole blood was collected, and plasma was prepared. Drug concentration was analyzed by LC-MS/MS, and pharmacokinetic parameters were calculated by Phoenix WinNonlin software.

Data set [2] in a line: Liver-blood ratio, tissue distribution in rats. Conditions: PO 1 mpk; for concentration at 6 h: read-out: Brain tissue concentration; for concentration at 1.5 h: read-out: Liver tissue concentration. Format: in vivo, SD rats. On the procedure: Tissue distribution of compounds in SD rats was tested.
In the experiment, candidate compounds were formulated as clear solutions and administered to rats in a single oral dose (PO, 1 mpk). The vehicle for oral administration was a certain proportion of methylcellulose and Tween 80 in water. Whole blood was collected at a certain time and plasma was prepared, and tissues were collected at the corresponding time and prepared into tissue homogenates. Drug concentration was analyzed by LC-MS/MS, and pharmacokinetic parameters were calculated by Phoenix WinNonlin software.

The subject of data set [3] is fructose metabolism in mice. The experiment in a line: Acute fructose feeding experiment in mice. It is filed as in vivo. Conditions: compound 30 mpk, oral fructose 1 g/kg.

CYP2C19, sequence (P33261 whole entry): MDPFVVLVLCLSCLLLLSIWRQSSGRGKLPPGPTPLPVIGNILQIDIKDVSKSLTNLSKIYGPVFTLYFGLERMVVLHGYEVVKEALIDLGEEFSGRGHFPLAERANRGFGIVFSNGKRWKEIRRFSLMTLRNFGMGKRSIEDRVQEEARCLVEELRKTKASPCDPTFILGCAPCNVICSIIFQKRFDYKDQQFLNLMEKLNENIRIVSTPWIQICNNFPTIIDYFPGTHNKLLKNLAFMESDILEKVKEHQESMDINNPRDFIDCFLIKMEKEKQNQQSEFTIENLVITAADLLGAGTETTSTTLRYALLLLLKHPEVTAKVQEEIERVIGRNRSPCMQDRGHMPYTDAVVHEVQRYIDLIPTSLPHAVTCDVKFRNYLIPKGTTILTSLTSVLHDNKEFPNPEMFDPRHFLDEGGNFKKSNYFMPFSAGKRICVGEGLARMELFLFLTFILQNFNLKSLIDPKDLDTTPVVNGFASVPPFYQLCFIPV
CYP2C9, sequence (P11712 whole entry): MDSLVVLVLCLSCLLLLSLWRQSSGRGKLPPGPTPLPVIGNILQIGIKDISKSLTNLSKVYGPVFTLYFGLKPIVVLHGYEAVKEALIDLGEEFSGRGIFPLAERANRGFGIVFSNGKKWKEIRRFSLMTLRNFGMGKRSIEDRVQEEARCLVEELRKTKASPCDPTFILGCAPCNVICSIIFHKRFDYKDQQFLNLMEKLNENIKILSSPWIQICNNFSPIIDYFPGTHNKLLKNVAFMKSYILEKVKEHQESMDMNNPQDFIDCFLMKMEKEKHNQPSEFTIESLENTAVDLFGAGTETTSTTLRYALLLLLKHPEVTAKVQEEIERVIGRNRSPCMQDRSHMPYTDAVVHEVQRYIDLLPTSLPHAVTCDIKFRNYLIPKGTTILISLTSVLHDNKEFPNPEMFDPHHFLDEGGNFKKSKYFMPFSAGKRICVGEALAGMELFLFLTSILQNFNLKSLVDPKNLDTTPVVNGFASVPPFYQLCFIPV
CYP1A2, sequence (P05177 whole entry): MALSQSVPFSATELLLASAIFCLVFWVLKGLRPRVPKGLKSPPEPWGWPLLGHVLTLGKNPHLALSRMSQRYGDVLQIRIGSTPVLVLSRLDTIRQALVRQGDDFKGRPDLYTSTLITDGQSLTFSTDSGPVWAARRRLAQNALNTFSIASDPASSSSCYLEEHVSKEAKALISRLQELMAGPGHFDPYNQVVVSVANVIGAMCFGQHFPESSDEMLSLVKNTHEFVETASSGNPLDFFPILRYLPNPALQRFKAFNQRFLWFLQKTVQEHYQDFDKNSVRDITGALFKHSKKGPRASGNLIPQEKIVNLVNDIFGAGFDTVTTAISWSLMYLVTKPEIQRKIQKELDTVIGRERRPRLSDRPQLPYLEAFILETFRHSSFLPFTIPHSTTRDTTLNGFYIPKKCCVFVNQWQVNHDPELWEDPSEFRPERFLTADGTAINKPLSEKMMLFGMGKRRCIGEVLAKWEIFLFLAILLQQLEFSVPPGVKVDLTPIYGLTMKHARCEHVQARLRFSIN
CYP2D6, sequence (P10635 whole entry): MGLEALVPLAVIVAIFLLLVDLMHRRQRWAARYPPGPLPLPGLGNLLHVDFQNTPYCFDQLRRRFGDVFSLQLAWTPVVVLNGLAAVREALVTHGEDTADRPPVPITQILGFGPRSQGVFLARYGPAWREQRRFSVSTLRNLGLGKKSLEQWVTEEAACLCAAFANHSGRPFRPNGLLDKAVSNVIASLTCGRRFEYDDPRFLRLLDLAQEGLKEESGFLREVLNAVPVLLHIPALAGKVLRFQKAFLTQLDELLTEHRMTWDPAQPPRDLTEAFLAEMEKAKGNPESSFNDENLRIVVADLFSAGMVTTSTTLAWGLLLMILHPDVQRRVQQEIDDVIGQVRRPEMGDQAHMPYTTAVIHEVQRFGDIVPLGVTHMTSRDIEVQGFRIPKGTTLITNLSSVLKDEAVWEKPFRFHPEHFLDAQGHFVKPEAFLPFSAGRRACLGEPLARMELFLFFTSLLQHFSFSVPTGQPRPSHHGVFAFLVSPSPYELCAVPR

Regarding `C[C@H]1CCN1c1nc(N2CC3(C[C@H]3C(=O)O)C2)c2c(n1)C(F)(F)CC2` [WX043], the IC50 on CYP1A2, against CYP2C19, at CYP2C9, against CYP2D6 and on CYP3A4 was > 50 µM throughout. For the same molecule, the clearance in data set [1] (1 mg/kg, IV 1 mpk, read-out: Clearance rate) came to 5.37 mL/min/kg. Besides, the AUC in data set [1] (3 mg/kg, PO 3 mpk, read-out: Integral concentration AUC for PO) came out at 12 µM·h. For the same molecule, the half-life in data set [1] (IV 1 mpk and PO 3 mpk study, read-out: Half-life T1/2 (converted)) is 5.83 h. In addition, the bioavailability in data set [1] (IV 1 mpk, PO 3 mpk, read-out: Bioavailability F) was 70%. Further, the values for the Brain-blood ratio in data set [2] (1.5 h) and in data set [2] (2.0 h) were 0.016 and 0.014, respectively. Besides, the values for the Liver-blood ratio in data set [2] (1.5 h), in data set [2] (2.0 h) and in data set [2] (6.0 h) were 20.0, 30.0 and 81.5, respectively. Also, the Plasma concentration in data set [2] (1.5 h) was found to be 2025 nM; in data set [2] (2.0 h) it was 916 nM; in data set [2] (6.0 h) it was 246 nM. Moreover, the concentration at 6 h in data set [2] (1.5 h) was 30.6 nM; in data set [2] (2.0 h), 13.1 nM. For the same molecule, the values for the concentration at 1.5 h in data set [2] (1.5 h), in data set [2] (2.0 h) and in data set [2] (6.0 h) were 38250 nM, 27800 nM and 19800 nM, respectively. The “AUC of integral fructose concentration for dosed group” value in data set [3] amounted to 3504 nM·h. The “AUC of integral fructose concentration of dosed group/AUC of Integral fructose concentration of control group” value in data set [3] is given as 13.3.
